Tests used:
Test in all cases: relative viability (nuclei count vs DMSO), 5 days (fraction); higher = more cells survive
Dactolisib + Vorinostat = compound: Cn1c(=O)n(-c2ccc(C(C)(C)C#N)cc2)c2c3cc(-c4cnc5ccccc5c4)ccc3ncc21 [Dactolisib] + O=C(CCCCCCC(=O)Nc1ccccc1)NO [Vorinostat] (partner 1 µM)
How it was run: (§1)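 Cells from lung cancer lines were seeded into 1536-well plates and, one day later, dosed by pin tool. Treatments were either a single drug or a fixed dose of an anchor drug with five library-drug doses (not always all listed) in √10 steps. After 5 days, nuclei were stained in a one-step fixation (final 0.05% Triton X-100, 1% formaldehyde, 1 ug/ml Hoechst) and counted on 4× images, and relative viability is the treated-to-vehicle nuclei ratio, as the median of duplicate plates.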

Dactolisib + Phenformin = compound: Cn1c(=O)n(-c2ccc(C(C)(C)C#N)cc2)c2c3cc(-c4cnc5ccccc5c4)ccc3ncc21 [Dactolisib] + N=C(N)NC(=N)NCCc1ccccc1 [Phenformin] (partner 250 µM)
How it was run: as §1

AZ505 + Palbociclib = compound: C1CCC(CC1)N(CCNCCC2=C3C(=C(C=C2)O)NC(=O)CO3)C(=O)CCNCCC4=CC(=C(C=C4)Cl)Cl [AZ505] + CC(=O)c1c(C)c2cnc(Nc3ccc(N4CCNCC4)cn3)nc2n(C2CCCC2)c1=O [Palbociclib] (partner 0.5 µM)
How it was run: as §1

Dactolisib + Decitabine = compound: Cn1c(=O)n(-c2ccc(C(C)(C)C#N)cc2)c2c3cc(-c4cnc5ccccc5c4)ccc3ncc21 [Dactolisib] + Nc1ncn([C@H]2C[C@H](O)[C@@H](CO)O2)c(=O)n1 [Decitabine] (partner 2 µM)
How it was run: as §1

Cell Line: UMC-11
- relative viability (Dactolisib + Vorinostat; first compound 0.002 µM): 0.407
- relative viability (Dactolisib + Vorinostat; first compound 0.006325 µM): 0.392
- relative viability (Dactolisib + Vorinostat; first compound 0.02 µM): 0.245
- relative viability (Dactolisib + Vorinostat; first compound 0.06325 µM): 0.235
- relative viability (Dactolisib + Vorinostat; first compound 0.2 µM): 0.175
- relative viability (Dactolisib + Phenformin; first compound 0.002 µM): 0.326
- relative viability (Dactolisib + Phenformin; first compound 0.006325 µM): 0.326
- relative viability (Dactolisib + Phenformin; first compound 0.02 µM): 0.315
- relative viability (Dactolisib + Phenformin; first compound 0.06325 µM): 0.218
- relative viability (Dactolisib + Phenformin; first compound 0.2 µM): 0.22
- relative viability (AZ505 + Palbociclib; first compound 0.08 µM): 0.303
- relative viability (AZ505 + Palbociclib; first compound 0.253 µM): 0.33
- relative viability (AZ505 + Palbociclib; first compound 0.8 µM): 0.332
- relative viability (AZ505 + Palbociclib; first compound 2.53 µM): 0.337
- relative viability (AZ505 + Palbociclib; first compound 8 µM): 0.321
- relative viability (Dactolisib + Decitabine; first compound 0.002 µM): 0.577
- relative viability (Dactolisib + Decitabine; first compound 0.006325 µM): 0.601
- relative viability (Dactolisib + Decitabine; first compound 0.02 µM): 0.514
- relative viability (Dactolisib + Decitabine; first compound 0.06325 µM): 0.366
- relative viability (Dactolisib + Decitabine; first compound 0.2 µM): 0.346

From the supplement of paper PMC10307832
